Measured values as given in PubChem BioAssay (NCI).
Values joined by “and” are separate entries in the source; they are usually repeats but may differ in a detail not shown here. Equal entries are not always repeated.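 Where inhibition never reached the appropriate level, the endpoint shown equals the highest concentration tested. Otherwise, values were interpolated linearly from a five-concentration, 48-hour dose response in 96-well plates. The concentration for 50% growth inhibition is given as GI50. At the TGI there is no net growth.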

Key:
Experiment in all cases: NCI-60 cell line screen, 48 h
MDA-MB-435 = tested on: MDA-MB-435
PC-3 prostate = tested on: PC-3 prostate
DU-145 prostate = tested on: DU-145 prostate
BT-549 breast = tested on: BT-549 breast
T-47D breast = tested on: T-47D breast
MDA-N = tested on: MDA-N

| Structure (SMILES) | GI50 (MDA-MB-435) [µM] | TGI (MDA-MB-435) | GI50 (PC-3 prostate) [µM] | TGI (PC-3 prostate) [µM] | GI50 (DU-145 prostate) [µM] | TGI (DU-145 prostate) [µM] | GI50 (BT-549 breast) [µM] | TGI (BT-549 breast) [µM] | GI50 (T-47D breast) [µM] | TGI (T-47D breast) [µM] | TGI (MDA-N) | GI50 (MDA-N) [µM] |
| --- | --- | --- | --- | --- | --- | --- | --- | --- | --- | --- | --- | --- |
| Cc1ccc(S(=O)(=O)NCCNC2=CC(=O)c3nc4ccccc4c4ccnc2c34)cc1 | 17.7 | 41.2 µM | 16 | 49.8 | 19.1 | 51.5 | 19.2 | 46.1 | 25.6 | 95.9 |  |  |
| CCOC(=O)C1=C(c2ccccc2)N(C)c2ccccc2S1 |  | > 100 µM |  | > 100 |  | > 100 |  | 66.6 |  | 73.9 |  |  |
| CSC(CC(=O)O)C(=O)O (centres undefined) |  | > 100 µM |  | > 100 |  | > 100 |  | > 100 |  | > 100 | > 100 µM |  |
| COc1cc(/C=C2\CCC/C(=C\c3cc(OC)c(O)c(OC)c3)C2=O)cc(OC)c1O | 2.57 | 75 µM and > 100 µM | 1.24 |  |  | 6.01 |  | 5.92 |  | 75 | 75 µM and > 100 µM | 2.52 |
| COc1ccc(-c2nc3sc(-c4ccc(Cl)cc4)cn3n2)cc1 | > 50 | > 50 µM | > 50 | > 50 | > 50 | > 50 | 43.2 | > 50 | 3.54 | > 50 |  |  |
| C/C(=N\O)c1cccc(Nc2cc(-n3ccnn3)c3ccccc3n2)c1 | 15.4 | 34.2 µM | 15.6 | 38 | 17.5 | 37.2 | 18.9 | 53.9 | 14.9 | 64.9 |  |  |
| CCC(=O)O[C@H]1CC[C@H]2[C@@H]3CC[C@H]4CC(=O)[C@H](C)C[C@]4(C)[C@H]3CC[C@]12C | 48.7 | > 100 µM | 10.5 | > 100 | > 79.7 | > 100 | 37 | > 100 | 26 | > 100 |  |  |
| O=C1C(c2c[nH]c3ccccc23)=C(c2c[nH]c3ccccc23)C(=O)N1O | > 25 | > 25 µM | > 25 | > 25 | > 25 | > 25 | > 25 | > 25 | > 25 | > 25 |  |  |
| O=C(Nc1ccc(F)cc1)c1ccc(NC2=C(Cl)C(=O)N(Cc3ccccc3)C2=O)cc1 | 7.07 | 26.3 µM | 7.42 | 22.3 | 6.48 | 29.8 | 3.14 | 10.8 | 5.69 | > 100 |  |  |
| O=Nc1c(-c2c(O)[nH]c3ccc([N+](=O)[O-])cc23)[nH]c2ccc(O)cc12 | 0.406 | > 57.8 µM | 0.394 | > 100 | 0.305 |  | 0.463 | > 100 | 0.506 | > 100 |  |  |
| COc1ccc(-c2oc3c(OC)c(OC)c(OC)c(O)c3c(=O)c2OC)cc1OC |  | 32.9 µM |  | > 93 |  | > 100 |  | > 100 |  | 25.6 | 30 µM |  |
| CC(C)CNCC(O)COc1ccc(C(C)(C)c2ccc(OCC(O)CNCC(C)C)cc2)cc1 (centres undefined) | 1.73 | 3.29 µM | 2.3 | 7.02 | 2.46 | 7.49 | 7.82 | 21 | 1.63 | 3.63 |  |  |
| COc1ccc2c(c1)/C(=C\c1cccnc1)C(=O)N2 | 35.9 | > 100 µM | 33.1 | > 100 | 2.52 | 21.3 | 13.3 | 32.3 | 13 | 37.9 |  |  |
| CCn1c(C(=O)N(C2CC2)C2CC2)cc2c3c(ncn3C)c(Nc3cc(C)n(C)n3)nc21 | > 100 | > 100 µM | > 100 | > 100 | > 100 | > 100 | > 100 | > 100 | > 100 | > 100 |  |  |
| Oc1ccc(C(c2ccc(O)cc2)c2ccc(Cl)cn2)cc1 | 23.3 | > 86.2 µM | 0.194 | 0.708 | 1.06 | > 100 | 0.0231 | 0.0707 | 0.0243 | 0.0762 |  |  |
| COc1ccc2c(c1)C(=O)c1c-2n(CCCN=[N+]=[N-])c(=O)c2cc(N(C)C)ccc12 | > 100 | > 100 µM | > 100 | > 100 | > 100 | > 100 | 6.15 | > 100 | 61.3 | > 100 |  |  |

| Structure (SMILES) | GI50 (MDA-MB-435) [µM] | TGI (MDA-MB-435) | GI50 (PC-3 prostate) [µM] | TGI (PC-3 prostate) [µM] | GI50 (DU-145 prostate) [µM] | TGI (DU-145 prostate) [µM] | GI50 (BT-549 breast) [µM] | TGI (BT-549 breast) [µM] | GI50 (T-47D breast) [µM] | TGI (T-47D breast) [µM] | TGI (MDA-N) | GI50 (MDA-N) [µM] |
| --- | --- | --- | --- | --- | --- | --- | --- | --- | --- | --- | --- | --- |
| COc1ccc(C2SCC(=O)N2NC(=O)C(O)c2ccccc2)cc1OC (centres undefined) | > 100 | > 100 µM | > 100 | > 100 | > 100 | > 100 | > 100 | > 100 | > 100 | > 100 |  |  |
| O=[N+]([O-])c1ccc(S(=O)Cc2ccccc2)c([N+](=O)[O-])c1 (centres undefined) | 2.51 | 7.69 µM | 14.6 | 30.9 | 11 | 23 | 2.09 | 7.37 | 1.51 | 3.6 |  |  |
| CCCCCCCNc1nc(C(=O)OCC)ncc1-c1ccc(C(F)(F)F)cc1 | 32.1 | > 100 µM | 26.6 | > 100 | 46.1 | > 100 | 29.1 | 97.7 | 28.1 | > 100 |  |  |
| O=C1c2ccc([N+](=O)[O-])cc2-c2c1c1ccccc1c(=O)n2CCCNCCCNCCCn1c2c(c3ccc([N+](=O)[O-])cc3c1=O)C(=O)c1ccccc1-2 | 3.88 | > 46.6 µM | 3.31 | 15.9 | 0.667 | 2.03 | 4.91 | 37.2 | 2.23 | 7.95 |  |  |
| COc1ccc(N2Cc3cnc(Nc4ccccc4)nc3N([C@@H]3CC[C@@H](O)C3)C2=O)cc1 | 5.98 | > 25 µM | 6.93 | > 25 | 5.59 | > 25 | 5.27 | > 25 | 11.9 | > 25 |  |  |
| CCOC(=O)C1=C(C(=O)c2ccc(C)cc2)C(c2cccc([N+](=O)[O-])c2)C(C(=O)c2ccc(C)cc2)=C(C(=O)OCC)N1 |  | 33.2 µM |  | 59.9 |  | 32.2 |  | > 100 |  | 8.84 |  |  |
| COc1cc2c(c(OC)c1OC)-c1ccc(N)c(=O)cc1[C@@H](NC(C)=O)CC2 | < 0.01 |  | 0.0354 | > 100 | 0.0291 | 0.0951 | 0.0164 | 0.0744 | > 100 | > 100 |  |  |
| Cc1c(S(C)(=O)=O)c(-c2cc(F)cc(N3CCN(c4ccc(NS(=O)(=O)c5ccc(N[C@H](CCN6CCC(C(=O)OCCCP(=O)(O)O)CC6)CSc6ccccc6)c(S(=O)(=O)C(F)(F)F)c5)cc4)CC3)c2)c(-c2ccc(Cl)cc2)n1C(C)C | > 100 | > 100 µM | > 100 | > 100 | > 100 | > 100 | > 100 | > 100 | > 100 | > 100 |  |  |
| CN1CCN(c2ccc(NC(=O)c3nc4ccc5[nH]ncc5c4c4c3CCCC4)cc2C(F)(F)F)CC1 | 0.899 | 1.74 µM |  |  | 1.03 | 2.15 | 6.07 | 12.4 | 0.835 | 1.74 |  |  |
| COc1ccc(Nc2ncc(Br)c(NCCCNC(=O)C3CCC3)n2)cc1 | 36.1 | > 100 µM | 14.5 | > 100 | 20.5 | > 100 | 3.62 | 15.9 | 41.2 | 98.7 |  |  |
| O=C1C=C(NCCNC(=S)Nc2ccccc2)c2nccc3c2c1nc1ccccc13 | 15.6 | 47.7 µM | > 100 | > 100 | 39.8 | > 100 | 70.1 | > 100 | > 100 | > 100 |  |  |
| Cc1ccc(/C(=N\N=C(N)N)c2ccccc2)cc1 | 0.203 | 0.631 µM | 0.406 | 18.7 | 0.41 | 10.4 | 0.744 | 7.62 | 0.421 | 24.6 |  |  |
| C=C1SC(=Nc2c(C)cc(C)cc2C)N(C(=O)c2sc3ccccc3c2Cl)C12CCCCC2 | > 100 | > 100 µM | 22.3 | > 100 | > 100 | > 100 | > 100 | > 100 | 9.69 | > 100 |  |  |
| O=C(/C=C/C12c3ccccc3C(c3ccccc31)C1C(=O)N(c3ccccc3)C(=O)C12)c1ccccc1 (centres undefined) | 2.56 | > 100 µM | 2.07 | > 100 | 2.14 | 6.03 | 1.37 | 3.02 |  |  |  |  |
| C[C@H](NC(=O)[C@@H]1CSSC[C@@H](NC(=O)c2nc3ccccc3cc2O)C(=O)NCC(=O)N1C)c1ccccc1 | 0.737 | 6.59 µM | 5.98 | 13.5 | 5.78 | 12.7 | 6.88 | 16.1 | 1.11 | 3.79 |  |  |
